Reference: patent publication US11178871B2, “Herbicidal pyrimidine compounds” (BASF SE, priority 2016, dated 2021)

Experiments:
Assay type in all cases: in vivo
[1] = system: Setaria viridis; experiment: greenhouse test, post-emergence treatment, SETVI
Excerpt: (§1) The culture containers used were plastic flowerpots containing loamy sand with approximately 3.0% of humus as the substrate. The seeds of the test plants were sown separately for each species.
(§2) For the post-emergence treatment, the test plants were first grown to a height of 3 to 15 cm, depending on the plant habit, and only then treated with the active ingredients which had been suspended or emulsified in water. For this purpose, the test plants were either sown directly and grown in the same containers, or they were first grown separately as seedlings and transplanted into the test containers a few days prior to treatment.
(§3) Depending on the species, the plants were kept at 10-25° C. or 20-35° C., respectively.
(§4) The test period extended over 2 to 4 weeks. During this time, the plants were tended, and their response to the individual treatments was evaluated.
(§5) Evaluation was carried out using a scale from 0 to 100. 100 means no emergence of the plants, or complete destruction of at least the aerial moieties, and 0 means no damage, or normal course of growth. A good herbicidal activity is given at values of at least 70 and a very good herbicidal activity is given at values of at least 85.
(§6) The plants used in the greenhouse experiments were of the following species: […]

[2] = system: Echinocloa crus-galli; experiment: greenhouse test, pre-emergence treatment, ECHCG
Method in brief: (§7)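 Scores run from 0, normal growth, to 100, no emergence or aerial parts destroyed, assessed after 2 to 4 weeks at 10-25 °C or 20-35 °C depending on species. Actives in water were spray-applied immediately post-sowing onto loamy sand with approximately 3.0% humus; hoods kept on until rooting.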

[3] = system: Alopecurus myosuroides; experiment: greenhouse test, post-emergence treatment, ALOMY; details: post-emergence
Method in brief: (§8)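 Visual rating on a 0-100 scale (100 = aerial parts destroyed or no emergence) was made 2-4 weeks after treating plants of 3-15 cm height with water-suspended or emulsified compound. Pots held loamy sand with approximately 3.0% humus; temperature 10-25 °C or 20-35 °C according to species.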

[4] = system: Apera spica-venti; experiment: greenhouse test, pre-emergence treatment, APESV
Method in brief: as §7

[5] = system: Poa annua; experiment: greenhouse test, pre-emergence treatment, POAAN
Excerpt: as §1
For the pre-emergence treatment, the active ingredients, which had been suspended or emulsified in water, were applied directly after sowing by means of finely distributing nozzles. The containers were irrigated gently to promote germination and growth and subsequently covered with transparent plastic hoods until the plants had rooted. This cover caused uniform germination of the test plants, unless this had been impaired by the active ingredients.
as §3, §4, §5, §6

[6] = system: Echinocloa crus-galli; experiment: greenhouse test, post-emergence treatment, ECHCG; details: post-emergence
Method in brief: as §8

[7] = system: Abutilon theophrasti; experiment: greenhouse test, post-emergence treatment, ABUTH
Excerpt: as §1, §2, §3, §4, §5, §6

[8] = system: Amaranthus retroflexus; experiment: greenhouse test, post-emergence treatment, AMARE
Excerpt: as §1, §2, §3, §4, §5, §6

[9] = system: Matricaria inodora; experiment: greenhouse test, post-emergence treatment, MATIN; details: 2000 g/ha
Excerpt: as §1, §2, §3, §4, §5, §6

[10] = system: Avena fatua; experiment: greenhouse test, post-emergence treatment, AVEFA; details: 2000 g/ha
Method in brief: as §8

CSc1ncc(-c2nc(C3CC3)ncc2-c2ccccc2Cl)cn1 [Ex. 248]
herbicidal activity ([1]; 2000 g/ha): very good (a very good herbicidal activity is given at values of at least 85)
herbicidal activity ([2]; 2000 g/ha): very good (a very good herbicidal activity is given at values of at least 85)
herbicidal activity ([3]; 2000 g/ha): very good (a very good herbicidal activity is given at values of at least 85)
herbicidal activity ([4]; 2000 g/ha): very good (a very good herbicidal activity is given at values of at least 85)
herbicidal activity ([5]; 2000 g/ha): very good (a very good herbicidal activity is given at values of at least 85)
herbicidal activity ([6]; 2000 g/ha): very good (a very good herbicidal activity is given at values of at least 85)

Cc1nc(C)c(-c2nc(C3CC3)ncc2-c2ccc(F)cc2Cl)o1 [Ex. 276]
herbicidal activity ([3]; 1000 g/ha): very good (a very good herbicidal activity is given at values of at least 85)
herbicidal activity ([7]; 1000 g/ha): very good (a very good herbicidal activity is given at values of at least 85)
herbicidal activity ([4]; 1000 g/ha): very good (a very good herbicidal activity is given at values of at least 85)
herbicidal activity ([8]; 1000 g/ha): very good (a very good herbicidal activity is given at values of at least 85)

CC(=O)Cc1nc(C2CC2)ncc1-c1ccccc1Cl [Ex. 146]
herbicidal activity ([1]; 2000 g/ha): very good (a very good herbicidal activity is given at values of at least 85)
herbicidal activity ([2]; 2000 g/ha): very good (a very good herbicidal activity is given at values of at least 85)
herbicidal activity ([7]; 2000 g/ha): very good (a very good herbicidal activity is given at values of at least 85)
herbicidal activity ([4]; 2000 g/ha): very good (a very good herbicidal activity is given at values of at least 85)
herbicidal activity ([6]; 2000 g/ha): very good (a very good herbicidal activity is given at values of at least 85)

Cc1ccccc1-c1cnc(C2CC2)nc1C [Ex. 19]
herbicidal activity ([7]; 2000 g/ha): very good (a very good herbicidal activity is given at values of at least 85)
herbicidal activity ([8]; 2000 g/ha): very good (a very good herbicidal activity is given at values of at least 85)

C=Cc1nc(C2CC2)ncc1-c1ccccc1Cl [Ex. 211]
herbicidal activity ([3]; 2000 g/ha): good (A good herbicidal activity is given at values of at least 70)
herbicidal activity ([4]; 2000 g/ha): good (A good herbicidal activity is given at values of at least 70)
herbicidal activity ([5]; 2000 g/ha): good (A good herbicidal activity is given at values of at least 70)
herbicidal activity ([6]; 2000 g/ha): very good (a very good herbicidal activity is given at values of at least 85)

CC(C)(O)c1nc(C2CC2)ncc1-c1ccccc1Cl [Ex. 86]
herbicidal activity ([1]; 1000 g/ha): very good (a very good herbicidal activity is given at values of at least 85)
herbicidal activity ([7]; 1000 g/ha): good (A good herbicidal activity is given at values of at least 70)
herbicidal activity ([4]; 1000 g/ha): good (A good herbicidal activity is given at values of at least 70)
herbicidal activity ([8]; 1000 g/ha): good (A good herbicidal activity is given at values of at least 70)

Cc1oc(Br)cc1-c1nc(C2CC2)ncc1-c1ccccc1Br [Ex. 253]
herbicidal activity ([3]; 1000 g/ha): very good (a very good herbicidal activity is given at values of at least 85)
herbicidal activity ([7]; 1000 g/ha): good (A good herbicidal activity is given at values of at least 70)
herbicidal activity ([8]; 1000 g/ha): very good (a very good herbicidal activity is given at values of at least 85)

COC(=O)C(C)c1nc(C2CC2)ncc1-c1ccccc1Br (stereo not drawn) [Ex. 85]
herbicidal activity ([7]; 2000 g/ha): very good (a very good herbicidal activity is given at values of at least 85)
herbicidal activity ([8]; 2000 g/ha): good (A good herbicidal activity is given at values of at least 70)

Clc1ccc(Cl)c(/C=C/c2nc(C3CC3)ncc2-c2ccccc2Cl)n1 [Ex. 257]
herbicidal activity [9]: good (A good herbicidal activity is given at values of at least 70)

CC(C)(C)c1ncc(-c2nc(C3CC3)ncc2-c2ccccc2Cl)o1 [Ex. 294]
herbicidal activity ([3]; 2000 g/ha): very good (a very good herbicidal activity is given at values of at least 85)
herbicidal activity ([7]; 2000 g/ha): very good (a very good herbicidal activity is given at values of at least 85)
herbicidal activity ([4]; 2000 g/ha): good (A good herbicidal activity is given at values of at least 70)
herbicidal activity ([6]; 2000 g/ha): very good (a very good herbicidal activity is given at values of at least 85)

Clc1cncc(-c2nc(C3CC3)ncc2-c2ccccc2Cl)c1 [Ex. 279]
herbicidal activity ([2]; 1000 g/ha): very good (a very good herbicidal activity is given at values of at least 85)
herbicidal activity ([3]; 1000 g/ha): very good (a very good herbicidal activity is given at values of at least 85)
herbicidal activity ([7]; 1000 g/ha): very good (a very good herbicidal activity is given at values of at least 85)
herbicidal activity ([4]; 1000 g/ha): very good (a very good herbicidal activity is given at values of at least 85)
herbicidal activity ([8]; 1000 g/ha): very good (a very good herbicidal activity is given at values of at least 85)

CC1OC1c1nc(C2CC2)ncc1-c1ccccc1Br (stereo not drawn) [Ex. 213]
herbicidal activity ([2]; 2000 g/ha): good (A good herbicidal activity is given at values of at least 70)
herbicidal activity ([3]; 2000 g/ha): very good (a very good herbicidal activity is given at values of at least 85)
herbicidal activity [10]: very good (a very good herbicidal activity is given at values of at least 85)
herbicidal activity ([4]; 2000 g/ha): good (A good herbicidal activity is given at values of at least 70)
herbicidal activity ([5]; 2000 g/ha): good (A good herbicidal activity is given at values of at least 70)
herbicidal activity ([6]; 2000 g/ha): very good (a very good herbicidal activity is given at values of at least 85)

CC(C)=CC(O)Cc1nc(C2CC2)ncc1-c1ccccc1Cl (stereo not drawn) [Ex. 223]
herbicidal activity ([2]; 2000 g/ha): very good (a very good herbicidal activity is given at values of at least 85)
herbicidal activity ([7]; 2000 g/ha): very good (a very good herbicidal activity is given at values of at least 85)
herbicidal activity ([4]; 2000 g/ha): very good (a very good herbicidal activity is given at values of at least 85)
herbicidal activity ([8]; 2000 g/ha): very good (a very good herbicidal activity is given at values of at least 85)
herbicidal activity ([5]; 2000 g/ha): very good (a very good herbicidal activity is given at values of at least 85)
herbicidal activity ([6]; 2000 g/ha): very good (a very good herbicidal activity is given at values of at least 85)

Clc1ccccc1-c1cnc(C2CC2)nc1-c1ccncn1 [Ex. 225]
herbicidal activity ([2]; 2000 g/ha): very good (a very good herbicidal activity is given at values of at least 85)
herbicidal activity ([3]; 2000 g/ha): very good (a very good herbicidal activity is given at values of at least 85)
herbicidal activity [10]: very good (a very good herbicidal activity is given at values of at least 85)
herbicidal activity ([4]; 2000 g/ha): very good (a very good herbicidal activity is given at values of at least 85)
herbicidal activity ([5]; 2000 g/ha): very good (a very good herbicidal activity is given at values of at least 85)
herbicidal activity ([6]; 2000 g/ha): very good (a very good herbicidal activity is given at values of at least 85)

OC(c1nc(C2CC2)ncc1-c1ccccc1Cl)C(O)c1c(Cl)ccc(Cl)c1Cl (stereo not drawn) [Ex. 241]
herbicidal activity ([5]; 2000 g/ha): very good (a very good herbicidal activity is given at values of at least 85)
herbicidal activity ([6]; 2000 g/ha): good (A good herbicidal activity is given at values of at least 70)

Cc1nc(C)c(-c2nc(C3CC3)ncc2-c2cc(C(F)(F)F)ccc2Cl)o1 [Ex. 278]
herbicidal activity ([2]; 1000 g/ha): very good (a very good herbicidal activity is given at values of at least 85)
herbicidal activity ([7]; 1000 g/ha): very good (a very good herbicidal activity is given at values of at least 85)
herbicidal activity ([4]; 1000 g/ha): very good (a very good herbicidal activity is given at values of at least 85)
herbicidal activity ([8]; 1000 g/ha): very good (a very good herbicidal activity is given at values of at least 85)
herbicidal activity ([6]; 1000 g/ha): very good (a very good herbicidal activity is given at values of at least 85)

CC1(C)OC(c2nc(C3CC3)ncc2-c2ccccc2Cl)C(C)(C)O1 (stereo not drawn) [Ex. 266]
herbicidal activity ([2]; 1000 g/ha): very good (a very good herbicidal activity is given at values of at least 85)
herbicidal activity ([3]; 1000 g/ha): very good (a very good herbicidal activity is given at values of at least 85)
herbicidal activity ([7]; 1000 g/ha): very good (a very good herbicidal activity is given at values of at least 85)
herbicidal activity ([4]; 1000 g/ha): very good (a very good herbicidal activity is given at values of at least 85)
herbicidal activity ([8]; 1000 g/ha): very good (a very good herbicidal activity is given at values of at least 85)

Brc1cc(-c2nc(C3CC3)ncc2-c2ccccc2Br)co1 [Ex. 268]
herbicidal activity ([2]; 1000 g/ha): very good (a very good herbicidal activity is given at values of at least 85)
herbicidal activity ([5]; 1000 g/ha): very good (a very good herbicidal activity is given at values of at least 85)
herbicidal activity ([6]; 1000 g/ha): very good (a very good herbicidal activity is given at values of at least 85)

CC(C)CC#Cc1nc(C2CC2)ncc1-c1ccccc1Cl [Ex. 28]
herbicidal activity ([7]; 1163 g/ha): good (A good herbicidal activity is given at values of at least 70)
herbicidal activity ([8]; 1163 g/ha): very good (a very good herbicidal activity is given at values of at least 85)
